Data: patent publication US6355799B1, “Substituted benzene compounds, process for their preparation, and herbicidal and defoliant compositions containing them” (ISK Americas Incorporated, priority 1997, dated 2002)

Tests used:
Format in all cases: in vivo
[1] = test system: redroot pigweed (Amaranthus retroflexus, AMARE); assay: Pre-emerge test, greenhouse herbicide activity screening; conditions: pre-emerge, phytotoxicity rating 0-100 at 14 days after application
Procedure, shortened: (§1)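 Visual ratings on a 0-100 scale (0 no damage, 100 all plants dead) were taken at 14 days after treatment. Rates of 15-1000 g ai/ha in acetone, 187 l/ha, were sprayed onto soil one day after planting (pre-emerge) or onto 2-3 leaf plants with 0.25% v/v surfactant (post-emerge).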

[2] = test system: upland rice (Oryza sp., var. Tebonnet, RICE); assay: Post-emerge test, crop safety; conditions: post-emerge, crop damage rating 0-100 at 14 days after application
Procedure, shortened: (§2)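 Herbicidal damage is scored 0 (none) to 100 (complete plant death) two weeks after a simulated field spray. Rates span 15–1000 g ai/ha, delivered in acetone at 187 l/ha. For post-emergence treatments, plants have 2–3 leaves and the spray carries 0.25% v/v non-ionic surfactant.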

[3] = test system: field corn (Zea mays L., var. Dekalb 535, CORN); assay: Post-emerge test, crop safety; conditions: post-emerge, crop damage rating 0-100 at 14 days after application
Procedure, shortened: as §2

[4] = test system: johnsongrass (Sorghum halepense, SORHA); assay: Post-emerge test, greenhouse herbicide activity screening; conditions: post-emerge, phytotoxicity rating 0-100 at 14 days after application
Procedure, shortened: as §1

[5] = test system: ivyleaf morningglory (Ipomoea hederacea, IPOHE); assay: as above; conditions: post-emerge, phytotoxicity rating 0-100 at 14 days after application
Procedure, shortened: as §1

[6] = test system: velvetleaf (Abutilon theophrasti, ABUTH); assay: as above; conditions: post-emerge, phytotoxicity rating 0-100 at 14 days after application
Procedure, shortened: as §1

[7] = test system: sicklepod (Cassia obtusifolia, CASOB); assay: as above; conditions: post-emerge, phytotoxicity rating 0-100 at 14 days after application
Procedure, shortened: as §1

[8] = test system: green foxtail (Setaria viridis, SETVI); assay: as above; conditions: post-emerge, phytotoxicity rating 0-100 at 14 days after application
Procedure, shortened: as §1

[9] = test system: large crabgrass (Digitaria sanguinalis, DIGSA); assay: as above; conditions: post-emerge, phytotoxicity rating 0-100 at 14 days after application
Procedure, shortened: as §1

[10] = test system: redroot pigweed (Amaranthus retroflexus, AMARE); assay: as above; conditions: post-emerge, phytotoxicity rating 0-100 at 14 days after application
Procedure, shortened: as §1

[11] = test system: lambsquarters (Chenopodium album, CHEAL); assay: as above; conditions: post-emerge, phytotoxicity rating 0-100 at 14 days after application
Procedure, shortened: as §1

[12] = test system: barnyardgrass (Echinochloa crus-galli, ECHCG); assay: as above; conditions: post-emerge, phytotoxicity rating 0-100 at 14 days after application
Procedure, shortened: as §1

[13] = test system: johnsongrass (Sorghum halepense, SORHA); assay: Pre-emerge test, greenhouse herbicide activity screening; conditions: pre-emerge, phytotoxicity rating 0-100 at 14 days after application
Procedure, shortened: as §2

[14] = test system: ivyleaf morningglory (Ipomoea hederacea, IPOHE); assay: as above; conditions: pre-emerge, phytotoxicity rating 0-100 at 14 days after application
Procedure, shortened: as §2

[15] = test system: velvetleaf (Abutilon theophrasti, ABUTH); assay: as above; conditions: pre-emerge, phytotoxicity rating 0-100 at 14 days after application
Procedure, shortened: as §2

[16] = test system: sicklepod (Cassia obtusifolia, CASOB); assay: as above; conditions: pre-emerge, phytotoxicity rating 0-100 at 14 days after application
Procedure, shortened: as §2

[17] = test system: green foxtail (Setaria viridis, SETVI); assay: as above; conditions: pre-emerge, phytotoxicity rating 0-100 at 14 days after application
Procedure, shortened: as §2

[18] = test system: large crabgrass (Digitaria sanguinalis, DIGSA); assay: as above; conditions: pre-emerge, phytotoxicity rating 0-100 at 14 days after application
Procedure, shortened: as §2

[19] = test system: lambsquarters (Chenopodium album, CHEAL); assay: as above; conditions: pre-emerge, phytotoxicity rating 0-100 at 14 days after application
Procedure, shortened: as §2

[20] = test system: barnyardgrass (Echinochloa crus-galli, ECHCG); assay: as above; conditions: pre-emerge, phytotoxicity rating 0-100 at 14 days after application
Procedure, shortened: as §2

[21] = test system: upland rice (Oryza sp., var. Tebonnet, RICE); assay: Pre-emerge test, crop safety; conditions: crop damage, pre-emerge, phytotoxicity rating 0-100 at 14 days after application
Procedure, shortened: (§3)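 Compounds in acetone were track-sprayed at 15-1000 g ai/ha (187 l/ha) on sandy loam pots: pre-emerge one day after seeding, post-emerge at 2-3 leaf stage with 0.25% v/v non-ionic surfactant. Phytotoxicity was rated 14 days later on a 0 (no damage) to 100 (complete death) scale.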

[22] = test system: field corn (Zea mays L., var. Dekalb 535, CORN); assay: Pre-emerge test, crop safety; conditions: crop damage, pre-emerge, phytotoxicity rating 0-100 at 14 days after application
Procedure, shortened: as §3

Question: With `C#CCOc1c(Cl)cc(F)c(N2C(=O)C3=C(CCCC3)C2=O)c1N` [Compound 8-3, N-(2-amino-4-chloro-6-fluoro-3-propargyloxyphenyl)tetrahydrophthalimide] as the compound, how does the “Pre-emerge Herbicidal Activity AMARE” value ([1]; rate 63 g ai/ha) read?
Answer: The value was 99.

Question: What about the “Pre-emerge Herbicidal Activity AMARE” value ([1]; rate 250 g ai/ha) of the same compound?
Answer: The value was 100.

Question: What about the “Post-emerge Herbicidal Activity RICE” value ([2]; 63 g ai/ha) of the same compound?
Answer: Its value is 20.

Question: And the “Post-emerge Herbicidal Activity RICE” value ([2]; 250 g ai/ha)?
Answer: Its value is 80.

Question: And the “Post-emerge Herbicidal Activity CORN” value ([3]; 63 g ai/ha)?
Answer: Its value is 0.

Question: And the “Post-emerge Herbicidal Activity CORN” value ([3]; 250 g ai/ha)?
Answer: The value was 0.

Question: And the “Post-emerge Herbicidal Activity SORHA” value ([4]; 63 g ai/ha)?
Answer: The value was 0.

Question: What about the “Post-emerge Herbicidal Activity SORHA” value ([4]; 250 g ai/ha) of the same compound?
Answer: Its value is 20.

Question: What about the “Post-emerge Herbicidal Activity IPOHE” value ([5]; 63 g ai/ha) of the same compound?
Answer: The value was 40.

Question: What about the “Post-emerge Herbicidal Activity IPOHE” value ([5]; 250 g ai/ha) of the same compound?
Answer: The value was 60.

Question: What about the “Post-emerge Herbicidal Activity ABUTH” value ([6]; 63 g ai/ha) of the same compound?
Answer: Its value is 90.

Question: And the “Post-emerge Herbicidal Activity ABUTH” value ([6]; 250 g ai/ha)?
Answer: Its value is 100.

Question: And the “Post-emerge Herbicidal Activity CASOB” value ([7]; 63 g ai/ha)?
Answer: The value was 0.

Question: And the “Post-emerge Herbicidal Activity CASOB” value ([7]; 250 g ai/ha)?
Answer: Its value is 50.

Question: And the “Post-emerge Herbicidal Activity SETVI” value ([8]; 63 g ai/ha)?
Answer: Its value is 0.

Question: And the “Post-emerge Herbicidal Activity SETVI” value ([8]; 250 g ai/ha)?
Answer: Its value is 70.

Question: And the “Post-emerge Herbicidal Activity DIGSA” value ([9]; 63 g ai/ha)?
Answer: Its value is 0.

Question: And the “Post-emerge Herbicidal Activity DIGSA” value ([9]; 250 g ai/ha)?
Answer: The value was 0.

Question: What about the “Post-emerge Herbicidal Activity AMARE” value ([10]; 63 g ai/ha) of the same compound?
Answer: The value was 90.

Question: And the “Post-emerge Herbicidal Activity AMARE” value ([10]; 250 g ai/ha)?
Answer: The value was 100.

Question: What about the “Post-emerge Herbicidal Activity CHEAL” value ([11]; 63 g ai/ha) of the same compound?
Answer: The value was 70.

Question: What about the “Post-emerge Herbicidal Activity CHEAL” value ([11]; 250 g ai/ha) of the same compound?
Answer: Its value is 90.

Question: What about the “Post-emerge Herbicidal Activity ECHCG” value ([12]; 63 g ai/ha) of the same compound?
Answer: The value was 0.

Question: What about the “Post-emerge Herbicidal Activity ECHCG” value ([12]; 250 g ai/ha) of the same compound?
Answer: The value was 0.

Question: And the “Pre-emerge Herbicidal Activity SORHA” value ([13]; rate 63 g ai/ha)?
Answer: Its value is 20.

Question: And the “Pre-emerge Herbicidal Activity SORHA” value ([13]; rate 250 g ai/ha)?
Answer: The value was 30.

Question: And the “Pre-emerge Herbicidal Activity IPOHE” value ([14]; rate 63 g ai/ha)?
Answer: The value was 30.

Question: And the “Pre-emerge Herbicidal Activity IPOHE” value ([14]; rate 250 g ai/ha)?
Answer: Its value is 10.

Question: And the “Pre-emerge Herbicidal Activity ABUTH” value ([15]; rate 63 g ai/ha)?
Answer: Its value is 98.

Question: And the “Pre-emerge Herbicidal Activity ABUTH” value ([15]; rate 250 g ai/ha)?
Answer: Its value is 100.

Question: What about the “Pre-emerge Herbicidal Activity CASOB” value ([16]; rate 63 g ai/ha) of the same compound?
Answer: Its value is 30.

Question: What about the “Pre-emerge Herbicidal Activity CASOB” value ([16]; rate 250 g ai/ha) of the same compound?
Answer: The value was 50.

Question: What about the “Pre-emerge Herbicidal Activity SETVI” value ([17]; rate 63 g ai/ha) of the same compound?
Answer: Its value is 95.

Question: What about the “Pre-emerge Herbicidal Activity SETVI” value ([17]; rate 250 g ai/ha) of the same compound?
Answer: The value was 98.

Question: And the “Pre-emerge Herbicidal Activity DIGSA” value ([18]; rate 63 g ai/ha)?
Answer: Its value is 30.

Question: And the “Pre-emerge Herbicidal Activity DIGSA” value ([18]; rate 250 g ai/ha)?
Answer: The value was 60.

Question: And the “Pre-emerge Herbicidal Activity CHEAL” value ([19]; rate 63 g ai/ha)?
Answer: Its value is 99.

Question: And the “Pre-emerge Herbicidal Activity CHEAL” value ([19]; rate 250 g ai/ha)?
Answer: Its value is 100.

Question: What about the “Pre-emerge Herbicidal Activity ECHCG” value ([20]; rate 63 g ai/ha) of the same compound?
Answer: The value was 0.

Question: What about the “Pre-emerge Herbicidal Activity ECHCG” value ([20]; rate 250 g ai/ha) of the same compound?
Answer: Its value is 10.

Question: What about the “Pre-emerge Herbicidal Activity RICE” value ([21]; rate 63 g ai/ha) of the same compound?
Answer: Its value is 0.

Question: And the “Pre-emerge Herbicidal Activity RICE” value ([21]; rate 250 g ai/ha)?
Answer: Its value is 0.

Question: What about the “Pre-emerge Herbicidal Activity CORN” value ([22]; rate 63 g ai/ha) of the same compound?
Answer: The value was 10.

Question: And the “Pre-emerge Herbicidal Activity CORN” value ([22]; rate 250 g ai/ha)?
Answer: The value was 0.
